Here are results for 14 molecules from paper PMC8910447 (International Journal of Molecular Sciences, 2022).

In series [1] the test system is infectious recombinant EBOV. The conditions noted are these: read-out: IC50 against infectious recombinant EBOV infection; cited from earlier work.
Series [2] concerns EBOVpp. Nature of the series: microbe, parasite or virus in culture. The class given is cell-based, Zaire ebolavirus.
Series [3] can be described thus: in vitro. The conditions noted are these: human.
For series [4], the target named is EBOV-GP (Zaire ebolavirus, UniProt Q05320). The series is described as follows: biochemical. The class given is binding, Ebola virus.
Chain of EBOV-GP (Q05320 33-676 limits assumed): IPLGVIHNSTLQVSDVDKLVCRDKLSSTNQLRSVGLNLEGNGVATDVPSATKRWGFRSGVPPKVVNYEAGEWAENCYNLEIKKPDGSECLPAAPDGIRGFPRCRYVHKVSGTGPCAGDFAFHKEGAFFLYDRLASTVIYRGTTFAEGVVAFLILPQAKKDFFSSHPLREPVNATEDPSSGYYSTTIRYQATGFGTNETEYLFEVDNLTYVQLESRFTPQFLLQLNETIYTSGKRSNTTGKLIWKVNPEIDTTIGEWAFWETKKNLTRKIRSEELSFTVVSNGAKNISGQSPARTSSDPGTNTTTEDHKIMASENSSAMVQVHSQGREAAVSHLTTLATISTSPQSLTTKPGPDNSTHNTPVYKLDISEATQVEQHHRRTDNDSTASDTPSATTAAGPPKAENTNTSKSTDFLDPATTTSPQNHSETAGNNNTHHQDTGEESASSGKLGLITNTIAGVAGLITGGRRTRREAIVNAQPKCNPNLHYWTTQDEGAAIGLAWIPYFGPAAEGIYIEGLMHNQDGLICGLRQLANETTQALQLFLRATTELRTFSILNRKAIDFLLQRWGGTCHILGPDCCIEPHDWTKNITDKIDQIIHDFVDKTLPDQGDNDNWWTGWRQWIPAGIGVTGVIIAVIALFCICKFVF
The test system of series [5] is pCMV C-His (negative control). The series is classed as binding.
Setting [6] is: Zaire ebolavirus, A549, n = 3, read-out: EBOVpp IC50.
The mark [7] stands for this setting: Zaire ebolavirus, A549, read-out: IC50 (M) against infection with EBOVpp.

Where two headings read alike, the source gives them in different places. A value given as a limit tells only on which side of the number the result lay.

As a reminder, the IC50 is the concentration at which inhibition is half-maximal. On to `O=C(O)c1cc(O)c(O)c(O)c1` [gallic acid], for which the half-maximal inhibitory concentration (IC50) in series [1] is 25.4 µM.
Take `Oc1cc(O)c2c(c1)O[C@H](c1ccc(O)c(O)c1)[C@@H](O)[C@@H]2c1c(O)cc(O)c2c1O[C@H](c1ccc(O)c(O)c1)[C@@H](O)C2` [Procyanidin B3 (7), Procyanidin B3]: the “Selectivity Index (SI)” value in series [2] is recorded as greater than 57.1. For the same molecule, the IC50 in series [2] (setting [6]) came to 1.52e-06 M. This molecule also had a CC50 in series [3] greater than 86.5 µM.
Regarding `Oc1cc(O)c2c(c1)O[C@H](c1cc(O)c(O)c(O)c1)[C@@H](O)C2` [Gallocatechin (10), gallocatechin], in series [2], the “Selectivity Index (SI)” value is on record as greater than 13.1. Further, the half-maximal inhibitory concentration (IC50) in series [2] (setting [7]) and in series [2] (setting [6]) was 1.24e-05 M throughout. The CC50 in series [3] was greater than 163 µM.
In the case of `Oc1cc(O)c2c(c1)OC(c1ccc(O)c(O)c1)C(O)C2c1c(O)cc(O)c2c1OC(c1ccc(O)c(O)c1)C(O)C2c1c(O)cc(O)c2c1OC(c1ccc(O)c(O)c1)C(O)C2c1c(O)cc(O)c2c1OC(c1ccc(O)c(O)c1)C(O)C2` (stereo not drawn) [Procyanidin tetramer (3), epicatechin-(4β→8)-epicatechin-(4β→8)-epicatechin-(4β→8)-epicatechin], in series [2] (setting [6]), the IC50 is greater than 1.15e-05 M. The molecule also came in with a CC50 in series [3] greater than 11.5 µM.
Take `Oc1cc(O)c2c(c1)O[C@H](c1cc(O)c(O)c(O)c1)[C@H](O)C2` [Epigallocatechin (11), epigallocatechin]: the “Selectivity Index (SI)” value in series [2] is given as greater than 29.5. Also, the IC50 in series [2] (setting [7]) and in series [2] (setting [6]) was 5.53e-06 M each time. The molecule further showed a CC50 in series [3] greater than 163 µM.
The term Kd denotes a measure of binding affinity in units of concentration. A high value points to lower affinity. As to `Oc1cc(O)c2c(c1)O[C@H](c1ccc(O)c(O)c1)[C@H](O)[C@H]2c1c(O)cc(O)c2c1O[C@H](c1ccc(O)c(O)c1)[C@H](O)C2` [Procyanidin B2 (1), procyanidin B2], the “Selectivity Index (SI)” value in series [2] is listed as greater than 104. Further, the half-maximal inhibitory concentration (IC50) in series [2] (setting [7]) turned out to be 8.29e-07 M; in series [2] (setting [6]) it was 8.3e-07 M. For the same molecule, the Kd in series [4] was 13 µM. Also, the “binding curve with the negative control” value in series [5] was “could not produce a binding curve”. Also, the CC50 in series [3] is greater than 86.5 µM.
With `Oc1cc(O)c2c(c1)O[C@H](c1ccc(O)c(O)c1)[C@H](O)[C@H]2c1c(O)cc(O)c2c1O[C@H](c1ccc(O)c(O)c1)[C@@H](O)C2` [Procyanidin B1 (6), Procyanidin B1], the “Selectivity Index (SI)” value in series [2] was greater than 91.1. In addition, the IC50 turned out to be 9.13e-07 M in series [2] (setting [7]) and 9.5e-07 M in series [2] (setting [6]). In addition, the CC50 in series [3] is greater than 86.5 µM.
The matching figures for `Oc1cc(O)c2c(c1)O[C@H](c1ccc(O)c(O)c1)[C@H](O)C2` [(−) Epicatechin (5), (−)-epicatechin]: greater than 7.79, 2.21e-05 M, 2.21e-05 M and greater than 172 µM.
The matching figures for `O=C(O[C@@H]1Cc2c(O)cc(O)cc2O[C@@H]1c1ccc(O)c(O)c1)c1cc(O)c(O)c(O)c1` [ECG (9), epicatechin 3-O-gallate]: greater than 7.68, 2.95e-06 M, 2.95e-06 M and greater than 22.6 µM.
Regarding `CN(C)CCOc1ccc(/C(=C(/CCCl)c2ccccc2)c2ccccc2)cc1` [Toremifene, toremifene, reference compound], in series [2] (setting [6]), the 50% inhibitory concentration (IC50) is 1.7e-07 M. Further, the “binding curve with the negative control” value in series [5] is given as “could not produce a binding curve”. In addition, the CC50 in series [3] is 2.92 µM.
With `O=C(O[C@@H]1Cc2c(O)cc(O)cc2O[C@@H]1c1cc(O)c(O)c(O)c1)c1cc(O)c(O)c(O)c1` [EGCG (8), (−)-epigallocatechin-3-O-gallate], in series [2], the “Selectivity Index (SI)” value is greater than 7.81. For the same molecule, the IC50 in series [2] (setting [7]) and in series [2] (setting [6]) was 2.8e-06 M each time. The CC50 in series [3] was greater than 21.8 µM.
For `Oc1cc(O)c2c(c1)O[C@H](c1ccc(O)c(O)c1)[C@H](O)[C@H]2c1c(O)cc(O)c2c1O[C@H](c1ccc(O)c(O)c1)[C@H](O)[C@H]2c1c(O)cc(O)c2c1O[C@H](c1ccc(O)c(O)c1)[C@H](O)C2` [Procyanidin C1 (2), procyanidin C1], the half-inhibitory concentration (IC50) in series [2] (setting [6]) is greater than 1.15e-05 M. For the same molecule, the CC50 in series [3] is greater than 11.5 µM.
For the molecule `O=C(O[C@@H]1Cc2c(O)cc(O)cc2O[C@@H]1c1ccc(O)c(O)c1)c1ccccc1` [13b, (2R,3R)-2-(3,4-Dihydroxyphenyl)-5,7-dihydroxychroman-3-yl benzoate], in series [2] (Zaire ebolavirus, A549, read-out: inhibitory effect against EBOVpp infection), the inhibition at 10 µM was greater than 60%.
In the case of `Oc1cc(O)c2c(c1)O[C@H](c1ccc(O)c(O)c1)[C@@H](O)C2` [(+) Catechin (4), (+)-catechin], the IC50 in series [2] (setting [7]) and in series [2] (setting [6]) was 3.6e-05 M in each case. The molecule also returned a CC50 in series [3] greater than 34.5 µM.
